The values that follow come from article PMC9501525, “Conjugation of a Cationic Cell-Penetrating Peptide with a Novel Kunitzin-like Trypsin Inhibitor: New Insights for Enhancement of Peptide Bioactivities” (Pharmaceutics, 2022).

In one data set the target is T1, trypsin (Bos taurus, UniProt P00760).
T1 construct: gene PRSS1
T1 sequence (P00760 24-246): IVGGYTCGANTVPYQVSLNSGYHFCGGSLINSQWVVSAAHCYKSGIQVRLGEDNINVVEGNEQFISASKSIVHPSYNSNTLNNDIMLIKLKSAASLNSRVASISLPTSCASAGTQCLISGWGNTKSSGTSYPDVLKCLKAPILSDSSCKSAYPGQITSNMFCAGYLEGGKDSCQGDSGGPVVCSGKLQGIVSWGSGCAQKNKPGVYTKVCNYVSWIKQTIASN
Kind of data set: Trypsin inhibition determination (fluorogenic substrate, Morrison Ki). The format is biochemical. As to conditions: Morrison equation; substrate Phe-Pro-Arg-AMC in PBS; Km = 67.38 μM, [S] = 42.86 μM, Et = 0.0020 μM; peptide 0.1–100 µM; nine replications in three experiments; N.I. = no inhibitory effect. The protocol:
(§1) Phe-Pro-Arg-AMC (Bachem, Merseyside, UK) and succinyl-Ala-Ala-Pro-Phe-AMC (Bachem, Merseyside, UK) were used as substrates for trypsin and chymotrypsin inhibition determinations, respectively. Serial peptide dilutions (0.1–100 µM in phosphate buffered saline (PBS)) were incubated with 180 µL of substrate solution (50 µM in PBS) in a black 96-well plate under dark conditions for 10 min. Immediately prior to measurement, 10 µL of trypsin/chymotrypsin working solution (0.1 µM in PBS) was added to each well (final volume of 210 µL) in the plate. Subsequently, the fluorescence intensity was measured with the FLUO star OPTIMA plate reader (BMG Labtech, Ortenberg, Germany). The whole measurement process lasted for 30 min and was carried out at an emission wavelength of 460 nm and an excitation wavelength of 395 nm. The inhibition curves of trypsin and chymotrypsin were analyzed by non-linear regression using the Morrison equation in Prism 9 (Trypsin Km = 67.38 μM; Chymotrypsin Km = 17.15 μM; [S] = 42.86 μM; Et = 0.0020 μM).

A further data set addresses chymotrypsin (Bos taurus, UniProt P00766). Description: Chymotrypsin inhibition determination (fluorogenic substrate, Morrison Ki). The format is biochemical. As to conditions: Morrison equation; substrate succinyl-Ala-Ala-Pro-Phe-AMC in PBS; Km = 17.15 μM, [S] = 42.86 μM, Et = 0.0020 μM; peptide 0.1–100 µM; nine replications in three experiments; N.I. = no inhibitory effect. The protocol:
as §1

In data set [1] the test system is K. pneumoniae (ATCC 43816). The format is cell-based, Klebsiella pneumoniae. As to conditions: for MIC: MHB, 5 × 10^5 CFU/mL, overnight; for MBC: clear wells spotted onto MHA. Here is the method:
(§2) The antimicrobial efficacy screening of the purified peptides was performed by MIC/MBC experiments on the following six different bacteria and an opportunistic pathogenic yeast: E. coli (ATCC 8739), Klebsiella pneumoniae (K. pneumoniae) (ATCC 43816), Pseudomonas aeruginosa (P. aeruginosa) (ATCC 9027), Staphylococcus aureus (S. aureus) (ATCC 6538), methicillin-resistant Staphylococcus aureus (MRSA) (NCTC 12493), Enterococcus faecium (E. faecium) (NCTC 12697), and Candida albicans (C. albicans) (ATCC 10231). First, frozen beads of respective cultures were inoculated into Mueller Hinton broth (MHB) medium and incubated overnight at 37 °C. Next, 500 µL of respective suspensions were added to the fresh MHB medium for incubation, and then sub-cultured until reaching the log growth phase, which was determined by measuring the absorbance of cultures at a wavelength of 550 nm. Then, the subcultures were diluted to 5 × 10^5 CFU/mL and 99 µL of suspension was removed and mixed with 1 µL of peptide solution at different concentrations (double-dilution of 12,800 to 100 µM) in a 96-well plate. The blank control, vehicle control, growth control, and the positive control groups were prepared according to the conditions mentioned previously. The peptide solutions were added to the plate and mixed with the diluted microbial suspensions. After overnight incubation, the absorbance at 550 nm of each well was measured with a Synergy HT plate reader (Biotech, Minneapolis, MN, USA). Subsequently, the samples in each clear well were spotted onto Mueller Hinton agar (MHA) plates for the MBC assays of the tested peptides.

The test system of the next data set is C. albicans (ATCC 10231). The class given is cell-based, Candida albicans. As to conditions: for MIC: MHB, 5 × 10^5 CFU/mL, overnight; for MBC: clear wells spotted onto MHA. The protocol:
as §2

The next data set has as its system E. faecalis (NCTC 12697). The class given is cell-based. As to conditions: for MIC: MHB, 5 × 10^5 CFU/mL, overnight; for MBC: clear wells spotted onto MHA. The protocol: as §2
Another data set has as its system horse erythrocytes. Description: Haemolysis activity assay. The format is cell-based. As to conditions: 2% horse erythrocytes in PBS, 37 °C, 2 h. The protocol:
Horse erythrocytes (TCS Biosciences Ltd., Buckingham, UK) were washed completely with PBS and resuspended to obtain a 2% horse erythrocyte suspension. Then, the peptide solutions at different concentrations were gently mixed with the same volume of horse red blood cell suspension and the mixture of peptide and horse erythrocytes was placed into a humidified incubator at 37 °C for 2 h. After incubation, the mixture of all experimental groups was centrifuged at 900× g for 10 min and the supernatants obtained were transferred to a blank 96-well plate. The absorbance of each well was measured at 550 nm using the Synergy HT plate reader.

Data set [2] has as its system P. aeruginosa (ATCC 9027). The class given is cell-based, Pseudomonas aeruginosa. As to conditions: for MIC: MHB, 5 × 10^5 CFU/mL, overnight; for MBC: clear wells spotted onto MHA. The protocol:
as §2

A further data set deals with E. coli biofilm. Kind of data set: Antibiofilm assays (MBIC/MBEC, crystal violet). The format is cell-based, Escherichia coli. As to conditions: for Concentration inhibiting biofilm formation (MBIC): E. coli, LB + 1% glucose, overnight 37 °C, crystal violet 595 nm, tested 1 to 128 µM; for Effect on existing biofilms (MBEC): E. coli pre-formed biofilm, 24 h, highest experimental concentration 128 µM. Here is the method: To explore the ability of peptides to inhibit and eradicate the biofilm of E. coli, the minimum biofilm inhibition concentrations (MBICs) and minimum biofilm eradication concentrations (MBECs) were tested, respectively. Luria-Bertani broth (LB) medium containing 1% glucose was used to culture E. coli. The subcultured bacteria were diluted to 5 × 10^5 CFU/mL and 99 µL of this bacterial suspension was used to mix with 1 µL of peptide solution at different concentrations (double-dilution of 12,800 to 100 µM) in a 96-well plate. After overnight culture in an oscillating incubator at 37 °C and 220 rpm, the formed biofilm was washed twice with 100 µL PBS, then fixed in methanol. Next, biofilm formation was evaluated by 0.1% crystal violet staining. After dyeing for 15 min, the excess crystal violet was washed off and 30% glacial acetic acid was added to each well of a 96-well plate after drying. Then, the plate was shaken for 15 min, and the absorbance was measured at 595 nm using the Synergy HT plate reader. For the determination of MBEC, after the biofilm was formed, it was first washed twice with PBS, then the fresh medium and different concentrations of peptide (similar to MBIC experiments) were added and incubated at 37 °C at 220 rpm. The absorbance measurement was the same as previously described after 24 h of MBIC.

[3] abbreviates: peptide 128 µM (maximum test concentration), vs 0.1% Triton X-100.

Molecules are shown by their SMILES. Peptide text beside a SMILES is read from it.

With `CC(C)C[C@H](NC(=O)[C@H](CCCCN)NC(=O)[C@H](C)NC(=O)[C@H](C)N)C(=O)N1CCC[C@H]1C(=O)N[C@@H](Cc1ccccc1)C(=O)N[C@@H](CCCNC(=N)N)C(=O)N[C@H]1CSSC[C@@H](C(=O)O)NC(=O)[C@H](Cc2ccccc2)NC(=O)[C@H](C)NC(=O)[C@H](C)NC(=O)[C@H](Cc2ccccc2)NC1=O` [F9-KOV2] (HELM PEPTIDE1{A.A.K.L.P.F.R.C.F.A.A.F.C}$PEPTIDE1,PEPTIDE1,8:R3-13:R3$$$V2.0), on trypsin, the “Trypsin Ki” value is “N.I”. The same compound yielded a Ki on chymotrypsin of 2.19 µM. Moreover, the MIC (in data set [1]; with C. albicans (ATCC 10231); in the data set on E. faecalis (NCTC 12697); in data set [2]) was greater than 128 µM in each case. In addition, the MBC (in data set [1]; in the data set on C. albicans (ATCC 10231); in the data set on E. faecalis (NCTC 12697); in data set [2]) was greater than 128 µM throughout. Besides, the Haemolytic activity result with horse erythrocytes (setting [3]) is listed as “less than 10%”. Further, the “Concentration inhibiting biofilm formation (MBIC)” value with E. coli biofilm was greater than 128 µM.

Take `CC(C)C[C@H](NC(=O)[C@H](CCCCN)NC(=O)[C@H](C)NC(=O)[C@H](C)N)C(=O)N1CCC[C@H]1C(=O)N[C@@H](Cc1ccccc1)C(=O)N[C@@H](CCCNC(=N)N)C(=O)N[C@H]1CSSC[C@@H](C(=O)O)NC(=O)[C@H](Cc2ccccc2)NC(=O)[C@H](C)NC(=O)[C@H](C)NC(=O)[C@H](CCCCN)NC1=O` [Kunitzin-OV2] (HELM PEPTIDE1{A.A.K.L.P.F.R.C.K.A.A.F.C}$PEPTIDE1,PEPTIDE1,8:R3-13:R3$$$V2.0): affinity at trypsin was put at a Ki of 9.82 µM. In addition, the “Chymotrypsin Ki” value at chymotrypsin was “N.I”. Moreover, the MIC (in data set [1]; in the data set on C. albicans (ATCC 10231); in the data set on E. faecalis (NCTC 12697); in data set [2]) was greater than 128 µM throughout. Further, the MBC (in data set [1]; with C. albicans (ATCC 10231); with E. faecalis (NCTC 12697); in data set [2]) was greater than 128 µM each time. Further, the Haemolytic activity entry in the data set with horse erythrocytes (setting [3]) is on record as “less than 10%”. Also, the “Concentration inhibiting biofilm formation (MBIC)” value with E. coli biofilm was greater than 128 µM.

On to `CC(C)C[C@H](NC(=O)[C@H](CCCCN)NC(=O)[C@H](C)NC(=O)[C@H](C)NC(=O)CNC(=O)CNC(=O)[C@H](CCCNC(=N)N)NC(=O)[C@H](CCCNC(=N)N)NC(=O)[C@H](CCCNC(=N)N)NC(=O)[C@H](CCC(N)=O)NC(=O)[C@H](CCCNC(=N)N)NC(=O)[C@H](CCCNC(=N)N)NC(=O)[C@H](CCCCN)NC(=O)[C@H](CCCCN)NC(=O)[C@@H](N)CCCNC(=N)N)C(=O)N1CCC[C@H]1C(=O)N[C@@H](Cc1ccccc1)C(=O)N[C@@H](CCCNC(=N)N)C(=O)N[C@H]1CSSC[C@@H](C(=O)O)NC(=O)[C@H](Cc2ccccc2)NC(=O)[C@H](C)NC(=O)[C@H](C)NC(=O)[C@H](Cc2ccccc2)NC1=O` [TAT-F9-KOV2] (HELM PEPTIDE1{R.K.K.R.R.Q.R.R.R.G.G.A.A.K.L.P.F.R.C.F.A.A.F.C}$PEPTIDE1,PEPTIDE1,19:R3-24:R3$$$V2.0), for which the “Trypsin Ki” value on trypsin was “N.I”. The same compound came in with a Ki at chymotrypsin of 2.23 µM. The MIC (in data set [1]; in the data set on C. albicans (ATCC 10231); with E. faecalis (NCTC 12697); in data set [2]) was greater than 128 µM each time. Moreover, the MBC (in data set [1]; in the data set on C. albicans (ATCC 10231); with E. faecalis (NCTC 12697); in data set [2]) was greater than 128 µM each time. The Haemolytic activity in the data set with horse erythrocytes (peptide 32 µM) is given as 10%; in the data set with horse erythrocytes (setting [3]) it was “about 25%”. The “Effect on existing biofilms (MBEC)” value with E. coli biofilm is on record as greater than 128 µM. In the data set with E. coli biofilm, the “Concentration inhibiting biofilm formation (MBIC)” value is 16 µM.

For the compound `CC(C)C[C@H](NC(=O)[C@H](CCCCN)NC(=O)[C@H](C)NC(=O)[C@H](C)NC(=O)CNC(=O)CNC(=O)[C@H](CCCNC(=N)N)NC(=O)[C@H](CCCNC(=N)N)NC(=O)[C@H](CCCNC(=N)N)NC(=O)[C@H](CCC(N)=O)NC(=O)[C@H](CCCNC(=N)N)NC(=O)[C@H](CCCNC(=N)N)NC(=O)[C@H](CCCCN)NC(=O)[C@H](CCCCN)NC(=O)[C@@H](N)CCCNC(=N)N)C(=O)N1CCC[C@H]1C(=O)N[C@@H](Cc1ccccc1)C(=O)N[C@@H](CCCNC(=N)N)C(=O)N[C@H]1CSSC[C@@H](C(=O)O)NC(=O)[C@H](Cc2ccccc2)NC(=O)[C@H](C)NC(=O)[C@H](C)NC(=O)[C@H](CCCCN)NC1=O` [TAT-KOV2] (HELM PEPTIDE1{R.K.K.R.R.Q.R.R.R.G.G.A.A.K.L.P.F.R.C.K.A.A.F.C}$PEPTIDE1,PEPTIDE1,19:R3-24:R3$$$V2.0), the Ki at trypsin is 10.1 µM. Besides, the “Chymotrypsin Ki” value at chymotrypsin is “N.I”. Further, the minimal inhibitory concentration (MIC) was greater than 128 µM in data set [1], greater than 128 µM with C. albicans (ATCC 10231), 128 µM with E. faecalis (NCTC 12697) and greater than 128 µM in data set [2]. The MBC (in data set [1]; in the data set on C. albicans (ATCC 10231); with E. faecalis (NCTC 12697); in data set [2]) was greater than 128 µM each time. The Haemolytic activity in the data set on horse erythrocytes (setting [3]) stood at 10%. The “Effect on existing biofilms (MBEC)” value in the data set on E. coli biofilm is on record as greater than 128 µM. The “Concentration inhibiting biofilm formation (MBIC)” value with E. coli biofilm was found to be 8 µM.
